The source of these data is patent publication US9724276B2, “Dental materials and method of manufacture” (Valspar Sourcing, Inc., priority 2012, dated 2017).

For one data set, the system named is MCF-7, clone WS8, cells. Kind of data set: MCF-7 cell proliferation assay of estrogenic activity. Type of data set: cell-based, human. Conditions: logarithmic (base 10) Relative Proliferative Effect relative to 17-beta estradiol, MCF-7 assay; values 'expected or measured'. The source says:
The MCF-7 assay is a useful test for assessing whether a polyhydric phenol compound is appreciably non-estrogenic. The MCF-7 assay uses MCF-7, clone WS8, cells to measure whether and to what extent a substance induces cell proliferation via estrogen receptor (ER)-mediated pathways. The method is described in “Test Method Nomination: MCF-7 Cell Proliferation Assay of Estrogenic Activity” submitted for validation by CertiChem, Inc. to the National Toxicology Program Interagency Center for the Evaluation of Alternative Toxicological Methods (NICEATM) on Jan. 19, 2006 (available online at iccvam.niehs.nih gov/methods/endocrine/endodocs/SubmDoc.pdf).
A brief summary of the method of the aforementioned MCF-7 assay is provided below. MCF-7, clone WS8, cells are maintained at 37° C. in RMPI (or Roswell Park Memorial Institute medium) containing Phenol Red (e.g., GIBCO Catalog Number 11875119) and supplemented with the indicated additives for routine culture. An aliquot of cells maintained at 37° C. are grown for two days in phenol-free media containing 5% charcoal stripped fetal bovine serum in a 25 cm^2 tissue culture flask. Using a robotic dispenser such as an EPMOTION™ 5070 unit from Eppendorf AG, MCF-7 cells are seeded at 400 cells per well in 0.2 ml of hormone-free culture medium in Corning 96-well plates. The cells are adapted for 3 days in the hormone-free culture medium prior to adding the chemical to be assayed for estrogenic activity. The media containing the test chemical is replaced daily for 6 days. At the end of a 7 day exposure to the test chemical, the media is removed, the wells are washed once with 0.2 ml of HBSS (Hanks' Balanced Salt Solution), and then assayed to quantify amounts of DNA per well using a micro-plate modification of the Burton diphenylamine (DPA) assay, which is used to calculate the level of cell proliferation. […]

Another data set addresses T1, human estrogen receptor (Homo sapiens, UniProt P03372).
T1 sequence (P03372 1-595): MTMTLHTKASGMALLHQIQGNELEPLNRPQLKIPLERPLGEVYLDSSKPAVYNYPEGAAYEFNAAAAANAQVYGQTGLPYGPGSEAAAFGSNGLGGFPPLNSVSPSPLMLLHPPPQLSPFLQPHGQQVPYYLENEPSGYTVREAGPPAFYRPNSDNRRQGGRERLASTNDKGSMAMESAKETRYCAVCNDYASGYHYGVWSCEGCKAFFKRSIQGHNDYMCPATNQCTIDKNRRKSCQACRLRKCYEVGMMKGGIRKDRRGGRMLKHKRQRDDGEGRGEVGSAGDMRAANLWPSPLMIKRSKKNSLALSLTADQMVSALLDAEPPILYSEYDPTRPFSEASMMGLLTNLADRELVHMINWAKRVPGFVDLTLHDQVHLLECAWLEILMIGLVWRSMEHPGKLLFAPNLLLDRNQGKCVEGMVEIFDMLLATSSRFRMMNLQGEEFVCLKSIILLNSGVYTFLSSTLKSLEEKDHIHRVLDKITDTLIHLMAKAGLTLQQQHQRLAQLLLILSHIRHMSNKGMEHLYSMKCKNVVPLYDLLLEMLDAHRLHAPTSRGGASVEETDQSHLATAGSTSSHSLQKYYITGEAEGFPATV
Kind of data set: suitable in vitro assay of estrogenic activity whose results correlate with the MCF-7 assay (outside toxicology laboratory). Conditions: in vitro assay correlated to MCF-7 assay through common reference compounds. The method, then: The polyhydric phenols used to make the diglycidyl ethers of each of Runs I-III were assayed for estrogenic activity by an outside toxicology laboratory using a suitable assay whose results are known to be directly correlatable to the MCF-7 assay based on common reference compounds.

A short description of data set [1]: genotoxicity assays (e.g., Ames II assay).

Each structure is given as a SMILES string.

Turning to `Oc1ccc(Cc2ccc(O)cc2)cc1` [Bisphenol F], the “Log RPE” value with MCF-7, clone WS8, cells is on record as −2.

`CCCC(c1cc(C(C)(C)C)c(O)cc1C)c1cc(C(C)(C)C)c(O)cc1C` [Structure 7, 4,4′-butylidenebis(2-t-butyl-5-methylphenol)]: on human estrogen receptor, the estrogenic activity result is listed as “do not exhibit appreciable estrogenic activity”.

As to `C[C@]12CC[C@@H]3c4ccc(O)cc4CC[C@H]3[C@@H]1CC[C@@H]2O` [17β-estradiol], in the data set on MCF-7, clone WS8, cells, the “Log RPE” value is 2.00.

In the case of `CC(C)(C)c1cc(Cc2cc(C(C)(C)C)c(OCC3CO3)c(C(C)(C)C)c2)cc(C(C)(C)C)c1OCC1CO1` (stereo not drawn) [Diglycidyl ether of 4,4′-methylenebis(2,6-di-tert-butylphenol)], in data set [1], the genotoxicity entry is given as “non-genotoxic”.

On to `O=S(=O)(c1ccc(O)cc1)c1ccc(O)cc1` [Bisphenol S], for which the “Log RPE” value in the data set with MCF-7, clone WS8, cells is −2.

Turning to `CC(C)(C)c1cc(Cc2cc(C(C)(C)C)c(O)c(C(C)(C)C)c2)cc(C(C)(C)C)c1O` [Structure 8, 4,4′-methylenebis(2,6-di-t-butylphenol)], the estrogenic activity result on human estrogen receptor was “do not exhibit appreciable estrogenic activity”.

`Cc1cc(Cc2cc(C)c(O)c(C)c2)cc(C)c1O` [Structure 6, 4,4′-methylenebis(2,6-dimethylphenol)]: the estrogenic activity result at human estrogen receptor is given as “do not exhibit appreciable estrogenic activity”.

Take `Cc1cc(Cc2cc(C)cc(C(C)(C)C)c2O)c(O)c(C(C)(C)C)c1` [Structure 9]: the estrogenic activity entry on human estrogen receptor is listed as “do not exhibit appreciable estrogenic activity”.

For `CC(C)(C)c1cc(O)c(C(C)(C)C)cc1O` [Structure 12, 2,5-di-t-butylhydroquinone], on human estrogen receptor, the estrogenic activity result is listed as “do not exhibit appreciable estrogenic activity”.
